Reference: publication PMC9959553, “Promising Antifungal Molecules against Mucormycosis Agents Identified from Pandemic Response Box®: In Vitro and In Silico Analyses” (Journal of Fungi, 2023)
Where a SMILES comes first, the peptide text is derived from it.

Each molecule was assayed on R. oryzae UCP1295 (assay: Screening of the Pandemic Response Box library at 5 µM). Settings: 48 h, Table S1, mean of the four values.
Format: cell-based, Rhizopus oryzae
Method: Rhizopus oryzae UCP is the most prevalent Mucorales species in human infections and was used as a reference strain to screen the Pandemic Response Box® library. Screening was performed according to Rollin-Pinheiro and colleagues. Each compound was diluted in RPMI 1640 medium (Sigma Chemical Co., St. Louis, MO, USA), supplemented with 2% glucose and buffered with 3-(N-morpholino) propanesulfonic acid (MOPS) (Sigma Chemical Co., St. Louis, MO, USA) (0.165 mol/L, pH 7.2, from here on referred to as ‘supplemented RPMI’) to reach 5 μM in 96-well microtiter plates. Posaconazole (5 μM) and supplemented RPMI containing 1% DMSO were used as controls (both from Sigma Chemical Co., St. Louis, MO, USA). Conidia (2 × 10^5/mL) were added and incubated for 48 h at 37 °C in a 5% CO2 atmosphere. […] An inhibition of at least 60% was defined as the cut-off to select the promising drugs with antifungal activity against the Rhizopus species.

Row | Structure (SMILES) | % of growth inhibition, Mean [%]
1 | CC(=O)N1c2ccccc2NC2=C(C(=O)CC(C)(C)C2)C1c1ccc(OCc2ccccc2)cc1 (stereo not drawn) [MMV1580503] | -1.0
2 | CC1(C)Cc2c(C#N)c(SCCc3ccccc3)nc(N3CCOCC3)c2CO1 [MMV1549626] | -26.0
3 | CC(=O)N[C@H](C)C(=O)N[C@H](Cc1ccccc1)C(=O)O [MMV1580845] | -37.6
4 | OCCC#Cc1nc(-c2ccc(F)cc2)c(-c2ccncc2)n1CCCc1ccccc1 [MMV1580797] | -16.9
5 | N#C/C(=C1/SC[C@@H](c2ccc(Cl)cc2Cl)S1)n1ccnc1 [MMV1782224] | -14.5
6 | CCCCCCCCCN1C[C@@H](O)[C@H](O)[C@@H](O)[C@@H]1CO [MMV1593513] | -2.2
7 | Nc1nnnn1CCOc1c2[nH]c3ccc(Cl)cc3c2cc2c1[nH]c1ccc(Cl)cc12 [MMV1633966] | -30.2
8 | CS(=O)(=O)c1ccc(Oc2ccc(Cl)cc2)cc1 [MMV1634404] | 4.1
9 | O=S(=O)(Nc1ccccc1)c1ccc(NC(=S)Nc2ccccc2)cc1 [MMV1578562] | -19.4
10 | Nc1nc(-c2ccccc2)nc2[nH]nc(Nc3ccc(C(F)(F)F)cc3)c12 [MMV1633968] | 4.3
11 | COc1ccc(C(C)(C)C)cc1NC(=O)C(=O)c1ccc(OCCN2CCOCC2)c2ccccc12 [MMV1782209] | -5.8
12 | CC1(C)C[C@H]1C(=O)N/C(=C\CCCCSC[C@@H](N)C(=O)O)C(=O)O.[Na+] [MMV1613559] | -16.6
13 | COc1cc(NCc2ccc3nc(N)nc(N)c3c2C)cc(OC)c1OC [MMV1580173] | 46.8
14 | COc1ccc(NC(=O)c2cc3ccccn3n2)cc1 [MMV374187] | -18.8
15 | CC(C)(C)c1cc(C(=O)/C(C#N)=N/Nc2cccc(Cl)c2)no1 [MMV1578571] | -7.2
16 | O=C(CC1Sc2ncnn2C1=O)Nc1ccc(Br)cc1 (stereo not drawn) [MMV214956] | -17.9
17 | O=C(O)C[C@H]1CC[C@H](c2ccc(-c3ccc(Nc4ccc(C(F)(F)F)nc4)cn3)cc2)CC1 [MMV1580498] | -26.7
18 | C[C@H]1[C@@H](c2cccc(C(F)(F)F)c2)OC(=O)N1C(=O)NCc1cncc2ccccc12 [MMV1593533] | -13.8
19 | CC(=O)Oc1ccccc1C(=O)Nc1ncc([N+](=O)[O-])s1 [MMV688991] | 5.4
20 | CCNC(=O)Nc1cn2c(-c3ncc(CC)cn3)cc(-c3cccnc3)cc2n1 [MMV1782403] | -42.7
21 | CC(C)N(c1cc(-c2ccccc2)sc1C(=O)O)C(=O)[C@H]1CC[C@H](C)CC1 [MMV1634388] | -4.7
22 | O=S(=O)(Nc1ccc(-n2cccc2)cc1)c1ccc(Cl)c(Cl)c1 [MMV1505642] | -4.1
23 | CCC[C@@H]1C[C@@H](C(=O)N[C@@H]([C@H]2O[C@H](SC)[C@H](O)[C@@H](O)[C@H]2O)[C@H](C)Cl)N(C)C1.Cl [MMV000051] | -29.6

Row | Structure (SMILES) | % of growth inhibition, Mean [%]
24 | C[C@@H](c1nc(-c2ccc(C#N)cc2)cs1)[C@](O)(Cn1cncn1)c1ccc(F)cc1F [MMV1634362] | -36.2
25 | Fc1ccc2c(/C=C/c3nnn[nH]3)c[nH]c2c1 [MMV1578563] | -0.5
26 | O=C(O)COc1cccc2c1CC[C@](O)(COC(=O)N(c1ccccc1)c1ccccc1)C2 [MMV1782352] | -13.6
27 | CC[C@@]1(O)C(=O)OCc2c1cc1n(c2=O)Cc2cc3c([N+](=O)[O-])cccc3nc2-1 [MMV1580796] | -1.7
28 | NC(=O)C(c1ccccc1)(c1ccccc1)[C@H]1CCCN(CCc2ccc3c(c2)CCO3)C1 [MMV1782412] | -1.5
29 | O=C(O)[C@H]1C2CCC(CC2)[C@@H]1Nc1nc(-c2c[nH]c3ncc(F)cc23)ncc1F [MMV1593516] | -10.6
30 | Nc1ccc(-c2nc3cc(C(F)(F)F)ccc3n2C23CC4CC(CC(C4)C2)C3)cc1 [MMV1634385] | -6.2
31 | O=C(O)c1cc(-c2ccc(Br)cc2)nc2ccc(Cl)cc12 [MMV247764] | -8.6
32 | O=C(NCc1cccc2ccccc12)c1cccs1 [MMV1579845] | -15.7
33 | COc1ccccc1NC(=O)c1ccccc1Sc1ccc([N+](=O)[O-])cc1 [MMV1580484] | -7.7
34 | C/C(=N\NC(=O)C1CC1c1ccccc1)c1ccc(NC(=O)c2ccco2)cc1 (stereo not drawn) [MMV1580487] | 0.3
35 | Cc1cc(C)n2nc(C(=O)NS(=O)(=O)c3c(C)cccc3OC(F)(F)F)nc2n1 [MMV1782402] | -19.8
36 | CC1(C)[C@H](C(=O)O)N2C(=O)C[C@H]2S1(=O)=O [MMV637945] | -27.5
37 | COc1cc(C2C3=C(CC(C)(C)CC3=O)Nc3ccccc3N2C(C)=O)ccc1OCc1ccccc1 (stereo not drawn) [MMV1634557] | -15.9
38 | CC(C)(C)OC(=O)NCc1ccc(C(=O)N[C@H]2CCOC2=O)cc1 [MMV1581547] | -3.1
39 | C[C@H]1CC[C@]2(NC1)O[C@H]1C[C@H]3[C@@H]4CC[C@H]5C[C@@H](O)CC[C@]5(C)[C@H]4CC[C@]3(C)[C@H]1[C@@H]2C.Cl [MMV003069] | -12.1
40 | CC(N)C(=O)NC(CCCCN)C(=O)NC(CCCNC(=N)N)C(=O)NC(Cc1c[nH]cn1)C(=O)NC(Cc1c[nH]cn1)C(=O)NCC(=O)NC(Cc1ccc(O)cc1)C(=O)NC(CCCCN)C(=O)NC(CCCNC(=N)N)C(=O)NC(CCCCN)C(=O)NC(Cc1ccccc1)C(=O)NC(Cc1c[nH]cn1)C(N)=O (stereo not drawn) [MMV1579849] (H-AKRHHGYKRKFH-NH2; configuration not given here) | -25.8
41 | C[Si]1(C)CCN(Cc2cc(-c3ccc(Cl)cc3)n(-c3ccc(Cl)cc3)n2)CC1 [MMV1580843] | -17.9
42 | O=c1[nH]c(=O)n(Cc2cccc(Oc3ccccc3)c2)cc1Nc1ccccc1 [MMV1782107] | -3.3
43 | Cn1c2ccccc2c(=O)c2c(O)cccc21 [MMV1580500] | -3.0
44 | CCC(C)(C)c1ccc(CC(C)CN2C[C@@H](C)O[C@@H](C)C2)cc1.Cl (stereo partly drawn) [MMV1634358] | -26.0
45 | CCNC(=O)Nc1cc2c(-c3ccnc(C)c3)ccc(CNC(=O)OC)c2cn1 [MMV1634390] | -15.7
46 | Oc1ccc(NCc2ccccc2OCc2ccccc2)cc1 [MMV1580504] | -5.9

Row | Structure (SMILES) | % of growth inhibition, Mean [%]
47 | CC(C)Oc1cccc(NC(=O)c2ccccc2C(F)(F)F)c1 [MMV1009286] | -12.9
48 | COc1c(F)c(F)cc2c(=O)c(C(=O)O)cn(C3CC3)c12 [MMV1480967] | -20.4
49 | Cc1ncc([N+](=O)[O-])n1CC(C)O (stereo not drawn) [MMV002287] | -34.1
50 | C[C@H](NC(CC(=O)c1ccccc1C(F)(F)F)C(=O)O)c1ccccc1 (stereo partly drawn) [MMV1579778] | -13.5
51 | O=C(Nc1ccc(-c2ccccc2)cc1)C1=C(O)C(Cc2ccccc2)OC1=O (stereo not drawn) [MMV1593531] | -29.2
52 | O=C(/C=C\n1cnc(-c2cc(C(F)(F)F)cc(C(F)(F)F)c2)n1)NNc1ccccn1 [MMV1580493] | 42.7
53 | O=C(N[C@H](CCS)C(=O)N[C@H](Cc1ccccc1)C(=O)O)c1cc2ccccc2[nH]1 [MMV1581557] | 0.3
54 | CC(C)(C)c1cccc(-c2nc3cc(C(=N)N)ccc3[nH]2)c1O [MMV1581548] | -15.8
55 | O=C(NO)C1(CS(=O)(=O)c2ccc(Oc3ccc(Cl)cc3)cc2)CCOCC1 [MMV690706] | -11.0
56 | C=C[C@]1(C)C[C@@H](OC(=O)CS[C@@H]2C[C@H]3CC[C@@H](C2)N3C)[C@]2(C)[C@H](C)CC[C@]3(CCC(=O)[C@H]32)[C@@H](C)[C@@H]1O [MMV1633674] | -19.9
57 | CCCCCOc1ccc(/C=C2\Oc3c(ccc(O)c3O)C2=O)c(O)c1 [MMV1580851] | -13.7
58 | CCC(CC)[C@H](NC(C)=O)[C@@H]1[C@H](O)[C@@H](C(=O)O)C[C@H]1NC(=N)N [MMV1593511] | 1.4
59 | CCCC(=O)OCCc1ccccc1 [MMV1578899] | -2.6
60 | Cc1onc(-c2ccccc2Cl)c1C(=O)N[C@@H]1C(=O)N2[C@@H]1SC(C)(C)[C@@H]2C(=O)O [MMV002740] | -27.0
61 | NNC(=O)c1ccncc1 [MMV002169] | -5.4
62 | CC[C@@]1(O)C(=O)OCc2c1cc1n(c2=O)Cc2cc3c(CN(C)C)c(O)ccc3nc2-1.Cl [MMV1633678] | -10.2
63 | CCNC(=O)Nc1cc(-c2ccccc2)c(-c2cncc(C(=O)O)c2)cn1 [MMV1593534] | -20.0
64 | N#Cc1cc([N+](=O)[O-])ccc1Oc1ccccc1Cl [MMV1580800] | -8.1
65 | COC1CC2CCC(C)C(O)(O2)C(=O)C(=O)N2CCCCC2C(=O)OC(C(C)CC2CCC(OCCO)C(OC)C2)CC(=O)C(C)/C=C(\C)C(O)C(OC)C(=O)C(C)CC(C)/C=C/C=C/C=C/1C (stereo not drawn) [MMV639951] | -2.4
66 | O=S(=O)(Nc1cccc2cccnc12)c1ccccc1 [MMV1578890] | 0.6
67 | NC(=O)c1[nH]c2ccc(S(N)(=O)=O)cc2c1-c1ccccc1 [MMV1581556] | -42.8
68 | O=C(Nc1ccc(F)cc1)c1nn(-c2ccccc2)c(=O)cc1Cl [MMV1578555] | -18.6
69 | N[C@H](CCC(=O)N[C@@H](Cc1c[nH]c2ccccc12)C(=O)O)C(=O)O [MMV1581033] | 2.8
